According to patent publication US20230066011A1, “PYRROLOPYRIMIDINE DERIVATIVE, AND PHARMACEUTICAL COMPOSITION FOR PREVENTING OR TREATING PROTEIN KINASE-RELATED DISEASE COMPRISING SAME AS ACTIVE INGREDIENT” (VORONOI CO., LTD., priority 2019, published 2023):

What was measured:
MDA-MB-231 cell line = experiment: Inhibition of proliferation of MDA-MB-231 cancer cells (Cell Titer-Glo); assay type: cell-based; conditions: Homo sapiens, 72 hours
Summary of the method: (§1)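 Cells were grown in DMEM or RPMI, seeded at 2,000 cells/well and exposed to 11 threefold dilutions of compound (final 10 to 0.000169 μM) for 72 hours. Viability was read by Cell Titer-Glo luminescence after 10 min at room temperature, and GI50 was calculated from the luminescence data.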

LRRK2 (G2019S) = LRRK2 (G2019S) (Homo sapiens, UniProt Q5S007, G2019S); experiment: Kinase HotSpot service (Reaction Biology Corporation), LRRK2 (G2019S); assay type: biochemical; set-up: purchased DiscoverX Corp. (ScanMAX Kinase analysis panel, service); conditions: ATP 10 uM, read-out: LRRK2 (G2019S) IC50 (values indicated by *)
Method: (§2) The inhibitory activities of the compounds were measured at a 3-fold concentration gradient starting from a maximum compound concentration of […], and the values measured using the Kinase HotSpot service (Reaction Biology Corporation) are indicated by an asterisk (*).
(§3) All the experimental methods were performed as provided by the Kinase HotSpot Customer Protocol (http://www.reactionbiology.com//Kinase_Assay_Protocol).

TTK = biological target: T1, TTK (Homo sapiens, UniProt P33981); experiment: TTK enzyme inhibition, ADP-Glo kinase assay; assay type: biochemical; set-up: purchased SignalChem T20-10G; conditions: ATP 5 μM
T1 sequence (P33981 1-857): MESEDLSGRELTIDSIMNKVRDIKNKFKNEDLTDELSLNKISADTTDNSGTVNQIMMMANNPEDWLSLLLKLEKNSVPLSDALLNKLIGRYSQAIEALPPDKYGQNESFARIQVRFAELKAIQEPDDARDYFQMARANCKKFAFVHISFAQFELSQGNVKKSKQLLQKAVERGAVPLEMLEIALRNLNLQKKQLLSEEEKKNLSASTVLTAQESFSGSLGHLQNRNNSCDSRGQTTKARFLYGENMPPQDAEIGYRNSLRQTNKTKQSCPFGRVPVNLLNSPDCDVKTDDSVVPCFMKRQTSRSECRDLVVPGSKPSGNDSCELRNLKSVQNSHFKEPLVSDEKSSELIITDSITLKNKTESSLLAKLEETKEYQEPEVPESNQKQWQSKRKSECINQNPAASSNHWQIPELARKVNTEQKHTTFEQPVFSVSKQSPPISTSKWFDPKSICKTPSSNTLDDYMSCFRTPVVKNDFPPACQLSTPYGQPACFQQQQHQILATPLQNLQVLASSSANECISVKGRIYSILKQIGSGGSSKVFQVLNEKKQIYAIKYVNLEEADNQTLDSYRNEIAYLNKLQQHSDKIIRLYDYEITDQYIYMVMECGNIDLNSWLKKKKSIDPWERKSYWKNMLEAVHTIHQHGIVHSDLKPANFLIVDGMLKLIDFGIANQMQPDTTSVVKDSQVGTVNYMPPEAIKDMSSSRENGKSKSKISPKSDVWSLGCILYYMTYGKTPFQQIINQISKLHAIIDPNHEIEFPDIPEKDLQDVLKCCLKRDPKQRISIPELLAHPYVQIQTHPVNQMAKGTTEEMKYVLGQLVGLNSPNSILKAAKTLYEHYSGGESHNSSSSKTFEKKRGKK
Method: To evaluate an inhibitory activity of the compound according to the present invention against LRRK2, LRRK2 (G2019S), DYRK1, CLK1, and TTK kinases, experiments were performed as follows.
Each of the Example compounds was reacted with a purified human TTK (SignalChem #T20-10G) enzyme to evaluate an ability to inhibit an enzyme using a method as described below. A composition of 40 mM Tris-HCl (pH 7.4), 20 mM MgCl2, 0.1 mg/mL BSA (a 5× kinase buffer, SignalChem #K03-09), and 50 μM DTT (SignalChem #D86-09B) was used as a reaction buffer, and all reactions of test substances were performed in the reaction buffer. Each of the compounds was diluted […] from a 10 mM DMSO stock using a serial dilution method, and enzyme activities were measured at final compound concentrations of 1, 0.333333, 0.111111, 0.037037, 0.012346, 0.004115, 0.001372, 0.000457, 0.000152, 0.000051, and 0.000017 μM. In the test, purified ATP (5 μM, Promega #V6930) and an MBP enzyme substrate (0.2 μg, SignalChem M42-51N) were reacted with a human TTK (7.5 ng) enzyme at 25° C. for 4 hours, and the enzyme activities were then determined using an in vitro ADP-Glo™ kinase assay (Promega #V6930). An enzyme-activity reaction solution, an ADP-Glo reaction solution, and an enzyme-ability detection solution were reacted at a ratio of 2:2:1 to measure a degree of inhibition of the enzyme activity with luminescence. The degree of inhibition of the enzyme activity according to the treatment concentration of each of the compounds was calculated based on the fluorescence of the enzyme activity of the solvent control which was not treated with the compound. In this case, the concentration of each of the compounds inhibiting 50% of the enzyme activity was determined to be an IC50 (nM) value, and calculated using Prism (Version 8.2 GraphPad) software.

LRRK2 = LRRK2 (Homo sapiens, UniProt Q5S007); experiment: Kinase HotSpot service (Reaction Biology Corporation), LRRK2; assay type: biochemical; set-up: purchased DiscoverX Corp. (ScanMAX Kinase analysis panel, service); conditions: ATP 10 uM, read-out: LRRK2 IC50 (values indicated by *)
Method: as §2, §3

CLK1 = biological target: T2, CLK1 (Homo sapiens, UniProt P49759); experiment: Kinase HotSpot service (Reaction Biology Corporation), CLK1; assay type: biochemical; conditions: ATP 10 uM, read-out: CLK1 IC50 (values indicated by *)
T2 construct: purchased DiscoverX Corp. (ScanMAX Kinase analysis panel, service)
Method: as §2, §3

human DYRK1A and tau = experiment: Inhibition of tau phosphorylation, ClariCELL Kinase Cell-Based Assay, HEK 293 cells expressing human DYRK1A and tau; conditions: for inhibition at 1 µM: HEK293, read-out: % inhibition at 1 uM, tau phosphorylation, compound 1 uM; for inhibition at 0.25 µM / inhibition at 0.5 µM: HEK293, tau phosphorylation; for inhibition at 0.25 µM: compound 0.25 uM; for inhibition at 0.5 µM: compound 0.5 uM
Summary of the method: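 Cell-based service assay: HEK 293 cells transiently expressing human DYRK1A and tau were treated with compound and lysed. Released tau was plate-captured and its phosphorylation quantified by ELISA with a phospho-tau-specific antibody.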

MDA-MB-468 cell line = experiment: Inhibition of proliferation of MDA-MB-468 cancer cells (Cell Titer-Glo); assay type: cell-based; conditions: Homo sapiens, MDA-MB-468, 72 hours
Summary of the method: as §1

DYRK1 = DYRK1 (Homo sapiens, UniProt Q13627); experiment: Kinase HotSpot service (Reaction Biology Corporation), DYRK1; assay type: biochemical; conditions: ATP 10 uM, read-out: DYRK1 IC50 (values indicated by *)
Method: as §2, §3

IL-6 = experiment: Inhibition of LPS-induced IL-6 secretion of THP-1 monocytes (ELISA); assay type: cell-based, human; conditions: Homo sapiens, THP-1; compound 0.5 μM, LPS 500 ng/mL, 24 hours; read-out: THP1/IL6 (% inhib)
Method: To evaluate an inhibitory effect on cytokine secretion of monocytes, THP-1 cells (ATCC, #TIB-202) as a human-derived monocyte line were cultured in an RPMI-1640 (Hyclone, SH30027.01) medium supplemented with 10% fetal bovine serum (Hyclone, SH30084.03), 1% penicillin streptomycin (Welgene, LS202-02), and 50 μM 2-mercaptoethanol (Gibco, #21985023). In the test, the cells were seeded in a 48-well plate (SPL, #30048) at a density of 1.5 to 2×10^5 cells/250 μL per well, and cultured at 37° C. for 16 hours in a 5% CO2 incubator. Thereafter, the compound was diluted with DMSO so that the final concentration of the compound was 0.5 μM. Then, the cells were treated with the diluted compound before an hour of treatment with lipopolysaccharides (LPS) (Sigma, #L6529). After the treatment with the compound, the cells were treated with LPS so that the final concentration was 500 ng/mL. Then, a cell culture broth was collected after 24 hours of culture, and levels of cytokine IL-6 (R&D Systems, #D6050) and TNF-α (R&D Systems, #DTA00D) comprised in the culture broth were measured using respective ELISA kits. After an experiment was performed according to the manufacturer's guidelines, cell analysis was performed by measuring the optical density at 450 nm using a microplate reader.

Sequence of LRRK2 (Q5S007 whole entry): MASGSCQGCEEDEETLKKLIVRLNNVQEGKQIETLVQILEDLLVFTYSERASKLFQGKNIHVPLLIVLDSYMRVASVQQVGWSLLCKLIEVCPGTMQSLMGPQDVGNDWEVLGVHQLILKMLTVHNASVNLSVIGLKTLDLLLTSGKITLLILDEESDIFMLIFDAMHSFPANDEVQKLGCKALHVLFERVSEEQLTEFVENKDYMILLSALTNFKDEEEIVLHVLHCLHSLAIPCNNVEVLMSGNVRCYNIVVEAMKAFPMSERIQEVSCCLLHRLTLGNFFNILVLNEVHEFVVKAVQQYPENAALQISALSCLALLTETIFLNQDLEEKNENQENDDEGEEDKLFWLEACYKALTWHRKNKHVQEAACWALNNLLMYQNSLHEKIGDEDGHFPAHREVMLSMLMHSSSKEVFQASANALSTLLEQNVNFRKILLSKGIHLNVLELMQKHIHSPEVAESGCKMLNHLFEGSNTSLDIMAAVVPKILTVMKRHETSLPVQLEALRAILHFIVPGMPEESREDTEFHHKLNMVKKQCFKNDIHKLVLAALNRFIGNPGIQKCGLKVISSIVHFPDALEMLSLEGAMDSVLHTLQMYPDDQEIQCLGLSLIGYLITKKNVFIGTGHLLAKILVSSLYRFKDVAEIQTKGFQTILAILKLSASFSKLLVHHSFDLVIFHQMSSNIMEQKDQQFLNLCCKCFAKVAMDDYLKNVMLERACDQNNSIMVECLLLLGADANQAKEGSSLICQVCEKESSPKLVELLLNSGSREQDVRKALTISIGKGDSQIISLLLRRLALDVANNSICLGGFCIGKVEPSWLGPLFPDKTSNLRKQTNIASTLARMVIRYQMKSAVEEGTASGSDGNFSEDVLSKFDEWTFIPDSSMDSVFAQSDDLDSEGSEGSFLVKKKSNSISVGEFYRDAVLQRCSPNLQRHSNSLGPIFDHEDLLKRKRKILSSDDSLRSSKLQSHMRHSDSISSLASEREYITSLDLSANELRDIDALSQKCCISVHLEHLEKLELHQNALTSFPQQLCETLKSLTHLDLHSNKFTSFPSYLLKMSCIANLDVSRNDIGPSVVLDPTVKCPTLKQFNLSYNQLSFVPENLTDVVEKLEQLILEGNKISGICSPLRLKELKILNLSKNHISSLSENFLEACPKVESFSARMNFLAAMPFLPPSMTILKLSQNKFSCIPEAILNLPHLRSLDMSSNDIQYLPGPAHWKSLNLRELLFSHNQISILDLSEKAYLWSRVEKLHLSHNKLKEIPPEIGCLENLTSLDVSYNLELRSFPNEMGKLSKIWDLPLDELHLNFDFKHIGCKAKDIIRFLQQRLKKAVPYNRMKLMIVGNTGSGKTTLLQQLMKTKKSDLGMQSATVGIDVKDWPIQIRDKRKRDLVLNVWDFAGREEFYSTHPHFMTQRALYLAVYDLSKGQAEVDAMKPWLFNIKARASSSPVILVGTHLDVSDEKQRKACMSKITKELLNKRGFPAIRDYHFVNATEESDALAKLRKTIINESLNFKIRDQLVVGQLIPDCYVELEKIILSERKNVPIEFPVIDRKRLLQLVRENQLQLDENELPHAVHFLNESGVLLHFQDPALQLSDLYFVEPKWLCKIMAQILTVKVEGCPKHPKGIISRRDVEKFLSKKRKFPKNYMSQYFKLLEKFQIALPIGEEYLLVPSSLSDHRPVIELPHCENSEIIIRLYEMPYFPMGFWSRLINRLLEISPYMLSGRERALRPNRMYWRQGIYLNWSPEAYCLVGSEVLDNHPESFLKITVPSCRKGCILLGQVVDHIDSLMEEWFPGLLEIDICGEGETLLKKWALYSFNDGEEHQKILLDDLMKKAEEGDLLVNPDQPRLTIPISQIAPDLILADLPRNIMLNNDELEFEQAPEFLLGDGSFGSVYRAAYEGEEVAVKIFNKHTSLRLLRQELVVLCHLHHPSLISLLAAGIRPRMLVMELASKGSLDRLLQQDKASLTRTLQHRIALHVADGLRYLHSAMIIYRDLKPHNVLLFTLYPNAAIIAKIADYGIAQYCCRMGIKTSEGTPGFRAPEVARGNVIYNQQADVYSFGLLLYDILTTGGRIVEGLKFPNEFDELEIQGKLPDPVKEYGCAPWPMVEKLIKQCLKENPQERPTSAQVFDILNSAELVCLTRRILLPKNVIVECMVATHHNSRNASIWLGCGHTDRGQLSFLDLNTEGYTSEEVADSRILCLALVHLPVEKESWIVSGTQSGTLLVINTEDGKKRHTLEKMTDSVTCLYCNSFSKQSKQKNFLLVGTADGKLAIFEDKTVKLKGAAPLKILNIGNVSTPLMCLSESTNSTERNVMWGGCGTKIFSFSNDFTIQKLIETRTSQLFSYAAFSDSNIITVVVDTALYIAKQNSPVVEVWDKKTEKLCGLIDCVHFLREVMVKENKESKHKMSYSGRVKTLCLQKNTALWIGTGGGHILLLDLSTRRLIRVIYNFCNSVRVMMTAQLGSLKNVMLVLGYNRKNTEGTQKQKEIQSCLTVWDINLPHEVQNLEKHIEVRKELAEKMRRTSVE
T2 sequence (P49759 whole entry): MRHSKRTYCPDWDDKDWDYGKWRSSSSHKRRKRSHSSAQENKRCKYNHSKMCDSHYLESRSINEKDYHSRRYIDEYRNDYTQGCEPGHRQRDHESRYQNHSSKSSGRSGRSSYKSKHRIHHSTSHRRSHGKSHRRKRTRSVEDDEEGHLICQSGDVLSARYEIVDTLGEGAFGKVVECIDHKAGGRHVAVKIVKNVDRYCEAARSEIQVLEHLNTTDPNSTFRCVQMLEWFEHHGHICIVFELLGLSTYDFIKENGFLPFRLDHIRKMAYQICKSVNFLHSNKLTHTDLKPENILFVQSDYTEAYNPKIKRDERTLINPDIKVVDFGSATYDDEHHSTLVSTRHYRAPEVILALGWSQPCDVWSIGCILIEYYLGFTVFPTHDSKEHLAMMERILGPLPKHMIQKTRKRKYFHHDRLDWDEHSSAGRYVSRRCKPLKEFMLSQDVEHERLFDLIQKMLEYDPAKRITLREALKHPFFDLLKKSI
Sequence of LRRK2 (G2019S) (Q5S007 whole entry G2019S): as the sequence (Q5S007 whole entry) above, with G2019S counted along it

GI50 (MDA-MB-231 cell line) [nM]	IC50 (LRRK2 (G2019S)) [µM]	IC50 (TTK) [µM]	IC50 (LRRK2) [µM]	IC50 (CLK1) [µM]	GI50 (MDA-MB-468 cell line) [nM]	IC50 (DYRK1) [µM]	SMILES	inhibition at 1 µM (human DYRK1A and tau) [%]	inhibition at 0.25 µM (human DYRK1A and tau) [%]	inhibition at 0.5 µM (human DYRK1A and tau) [%]	inhibition at 0.5 µM (IL-6) [%]
301 to 1000	< 0.1	< 0.1	< 0.1	< 0.1	301 to 1000	< 0.1	COc1cc(S(=O)(=O)N2CCOCC2)ccc1Nc1nc(C2CC2)c2c(C(F)(F)F)c[nH]c2n1 [Example 225, 4-cyclopropyl-N-(2-methoxy-4-(morpholinosulfonyl)phenyl)-5-(trifluoromethyl)-7H-pyrrolo[2,3-d]pyrimidin-2-amine]	29.9	1	-2.5	
	< 0.1	0.101 to 0.3	< 0.1	< 0.1	301 to 1000	< 0.1	O=C(c1ccc(Nc2nc(C3CC3)c3c(C(F)(F)F)c[nH]c3n2)c2c1OCCO2)N1CCOCC1 [Example 227, (8-((4-cyclopropyl-5-(trifluoromethyl)-7H-pyrrolo[2,3-d]pyrimidin-2-yl)amino)-2,3-dihydrobenzo[b][1,4]dioxin-5-yl)(morpholino)methanone]	32.7	7.4	22.8	
		< 0.1	< 0.1	< 0.1	301 to 1000	< 0.1	O=C(c1ccc(Nc2nc(C3CC3)c3c(C(F)(F)F)c[nH]c3n2)c2c1CCO2)N1CC[C@H](N2CCOCC2)C1 [Example 472]	56.5	23.6	36.5	31.5
